Patent US20240417435A1, “DEFENSIN-DERIVED PEPTIDE WITH ANTIBACTERIAL ACTIVITY ALSO AGAINST MULTI-ANTIBIOTIC-RESISTANT BACTERIA” (priority 2021, published 2024)

How the values were obtained:
S. aureus ATCC 6538 = assay: SYTOX Green absorption assay (membrane permeabilisation); assay type: cell-based, Staphylococcus aureus
Protocol: (§1) The effect of peptide γ2 on the membrane integrity of S. aureus ATCC 6538 and P. aeruginosa ATCC 27853 was evaluated by measuring the extent of intracellular accumulation of SYTOX green (Juba M L, et al. Biochim Biophys Acta. 2015; 1848 (5): 1081-91). The cells were harvested halfway through the log phase, washed, and resuspended in 10 mM of phosphate buffer. The final density was adjusted to 5×10^7 CFU/mL. The cells were then treated with peptide γ2 (0.625, 1.25, 2.5, 12.5, 25 μM) in the presence of 200 nM SYTOX green (Invitrogen). The fluorescence increase of SYTOX green, a direct measurement of the degree of membrane permeabilisation, was monitored with a fluorescence spectrophotometer. The excitation and emission wavelengths used were 503 nm and 523 nm respectively. 5

P. aeruginosa ATCC 27853 = assay: as above; assay type: cell-based, Pseudomonas aeruginosa
Protocol: as §1

[1] = tested on: S. aureus ATCC 6538 biofilm; assay: Biofilm formation and maturation, crystal violet; assay type: cell-based, Staphylococcus aureus; conditions: concentrations slightly higher than MIC, dose-dependent, maximum activity at 125 μM
Protocol: (§2) The biofilm formation test for S. aureus ATCC 6538 and P. aeruginosa ATCC 27853 was conducted in 96-well plates, as previously reported (Merritt J H, Kadouri D E, O'Toole G A. Growing and analyzing static biofilms. Curr Protoc Microbiol. 2005; Chapter 1: Unit 1B.1.)
(§3) Briefly, the bacteria from overnight cultures were diluted and grown to 0.5 McFarland. The bacteria were diluted 1:100 and plated in each well containing 100 μL of BHI broth. To evaluate the impact of peptide γ2 on biofilm formation, the medium was supplemented with various concentrations of peptide (2.5, 12.5, 25 and 125 μM) and incubated overnight. To evaluate biofilm maturation, the bacteria of the cultures grown overnight were diluted 1:1000, and 5 μL of said bacterial suspensions was added to each well, containing 100 μL of BHI broth, and left to grow overnight. The medium was then removed and replaced with fresh medium containing various peptide concentrations (2.5, 12.5 and 125 μM). At the end of incubation, the medium was removed; the biofilms were washed twice with PBS and stained with crystal violet (1%) for 30 minutes, then resuspended in 200 μL of ethanol. The negative controls were bacteria incubated with medium only. The positive controls were bacteria incubated with medium supplemented with 0.42 μM gentamicin.

[2] = tested on: P. aeruginosa ATCC 27853 biofilm; assay: Biofilm formation and maturation, crystal violet; assay type: cell-based, Pseudomonas aeruginosa; conditions: concentrations slightly higher than MIC, dose-dependent, maximum activity at 125 μM
Protocol: as §2, §3

[3] = tested on: S. aureus ATCC 6538 biofilm; assay: Biofilm formation by LIVE/DEAD imaging; assay type: cell-based, Staphylococcus aureus; conditions: 24 h static culture
Protocol: (§4) The formation of S. aureus ATCC 6538 and P. aeruginosa ATCC 27853 biofilms was also evaluated by imaging. The medium was then supplemented with various peptide concentrations (2.5, 12.5 and 25 μM) and incubated overnight, and the biofilms were stained with a FilmTracer LIVE/DEAD biofilm viability kit (Invitrogen) according to the manufacturer's instructions. The images were acquired with Cell Discoverer 7, Zeiss.

[4] = tested on: P. aeruginosa ATCC 27853 biofilm; assay: Biofilm formation by LIVE/DEAD imaging; assay type: cell-based, Pseudomonas aeruginosa; conditions: 24 h static culture
Protocol: as §4

A549 cells [5] = assay: Cell migration assay in Boyden chambers; assay type: cell-based
Protocol: (§5) Cell migration assays were conducted as previously described (Bifulco K et al., Mol Cancer There 2013; 2:1981-93), using Boyden chambers and polyvinylpyrrolidone-free polycarbonate filters with 8 μm pores inserted between a lower and upper compartment. Briefly, the cell suspension (1×10^5 viable cells/mL of serum-free medium) was seeded in each upper chamber. The lower chambers were filled with DMEM only, DMEM containing 10 nM N-formyl-methionyl-leucylphenylalanine peptide (fMLF), as positive control, or increasing peptide γ2 concentration. Incubation was conducted for 4 h at 37° C. in air humidified with 5% CO2. At the end of the assay, the cells on the lower surface of the filter were fixed with ethanol and stained with haematoxylin, and 10 random fields/filter were counted with a 200× magnification. The extent of cell migration was expressed as a percentage of baseline cell migration evaluated in the absence of chemo-attractants, taken as 100% (CTRL).

HT-1080 cells [6] = assay: Cell migration assay in Boyden chambers; assay type: cell-based
Protocol: as §5

HUVEC endothelial cells = assay: Cell migration assay in Boyden chambers; assay type: cell-based
Protocol: as §5

[7] = tested on: peripheral blood mononuclear cells (PBMC); assay: Cytokine secretion measurement (ProcartaPlex/Luminex); assay type: cell-based, human; conditions: PBMCs from healthy donors; 1.25 and 12.5 μM; 18 hours
Source text: Supernatants for cytokine evaluation were harvested from peripheral blood mononuclear cell cultures (PBMCs) and analysed with the Invitrogen ProcartaPlex bead-based immunoassay (Invitrogen, Thermo Fisher Scientific) using the Luminex instrument platform (Luminex 200, Luminex Corporation), according to the manufacturer's instructions. xPONENT 3.1 software (Luminex) was used for acquisition and analysis of the samples.

HT-1080 cells [8] = tested on: HT-1080 cells
Protocol: (§6) Parental HT-1080, HUVEC, SH-SY5Y human fibroblasts (HF) and A549 cells from Culture Cell Lines Facility CEINGE Biotecnologie Avanzate s.c.ar.l., Naples, Italy, and HeLa cells (ATCC CCL-2) stored in liquid nitrogen, were thawed by stirring the vials gently for 2 minutes in a water bath at 37° C. […]
(§7) The cells were incubated for 24 hours at 37° C. in 5% CO2 to allow them to grow and form a single layer in the flask. Cells grown to 80-95% confluency were washed with PBS, treated with 3 mL of trypsin-EDTA 1× solution, diluted, counted and seeded (4×10^3 cells/200 μl per well) in 96-well tissue-culture plates for 24 h in triplicate. The reduction in cell proliferation was evaluated with the 3-[4,5-dimethylthiazol-2-yl]-2,5-diphenyltetrazolium bromide (MTT) assay, which measures metabolic changes. […] After incubation, the presence of violet crystals, which normally indicate metabolisation of MTT, was evaluated. […] The specific stain eluted was measured with a spectrophotometer (550 nm). […] The cell inhibition percentage was determined with the following formula:
(§8) % cell inhibition=100−(Absorbance of treated cells/Absorbance of control cells)×100. […]
(§9) The mean percentage cell inhibition values for each cell line at different peptide γ2 concentrations compared with the untreated cells were analysed with One-way ANOVA.

A549 cells [9] = tested on: A549 cells
Protocol: as §6, §7, §8, §9

Protocol for HUVEC cells: as §6, §7, §8, §9
Protocol for HeLa cells: as §6, §7, §8, §9
Protocol for human fibroblasts (HF): as §6, §7, §8, §9

Ac-CLPKRRQIGKSSTRGRKSCKK-NH2 (not fully specified (bridges); printed as Ac-CLPKRRQIGKSSTRGRKSCKK-NH2; also: oxidised (disulfide) or reduced form, both stated) [peptide γ2]
incubation time at which increased influx of SYTOX Green was evident (S. aureus ATCC 6538): 40 min | dose at which the peptide already effectively permeabilised the bacteria (S. aureus ATCC 6538; SYTOX Green, dose-dependent): 1.25 µM | incubation time at which increased influx of SYTOX Green was seen (P. aeruginosa ATCC 27853): 15 min | dose at which the peptide already effectively permeabilised the bacteria (P. aeruginosa ATCC 27853; SYTOX Green, dose-dependent): 1.25 µM | biofilm formation [1]: significantly inhibited | biofilm maturation [1]: significantly inhibited | biofilm formation [2]: significantly inhibited | biofilm maturation [2]: significantly inhibited | smallest dose at which inhibition of biofilm formation was already evident [3]: 2.5 µM | smallest dose at which inhibition of biofilm formation was already evident [4]: 2.5 µM | directional migration, % of the baseline cell migration (A549 cells [5]; 50 μM, 4 h): 169% | directional cell migration (A549 cells [5]; 100 μM versus 50 μM): did not further increase directional cell migration | chemotactic effect (A549 cells [5]; low concentrations): slight chemotactic effect | directional migration, % of the baseline cell migration (HT-1080 cells [6]; 50 μM, 4 h): 158% | directional cell migration (HT-1080 cells [6]; 100 μM versus 50 μM): did not further increase directional cell migration | chemotactic effect (HT-1080 cells [6]; low concentrations): slight chemotactic effect | directional cell migration (HUVEC endothelial cells; HUVEC, 100 μM versus 50 μM): did not further increase directional cell migration | chemotactic effect (HUVEC endothelial cells; HUVEC, low concentrations): slight chemotactic effect | directional migration, % of the baseline cell migration (HUVEC endothelial cells; endothelial cells (HUVEC), 50 μM, 4 h): 156% | IL-1 secretion [7]: up-regulated | IL-6 secretion [7]: up-regulated | IL-9 secretion [7]: up-regulated | INF-γ secretion [7]: up-regulated | cell viability (HT-1080 cells [8]): viability remained high | reduction of cell viability (A549 cells [9]): about 20% | cell viability (HeLa cells): viability remained high | cell viability compared with the control cells (HeLa cells; human, HeLa cells, 6 h, 40 µM): 97% | reduction of cell viability (HUVEC cells): about 20% | reduction of cell viability (human fibroblasts (HF)): about 20%
